Reference: article PMC6983366, “A de novo peroxidase is also a promiscuous yet stereoselective carbene transferase” (Proceedings of the National Academy of Sciences of the …, 2020)

Experiments:
C45 = system: T1, C45; experiment: stopped-flow UV/visible kinetics of heme carbene formation; format: biochemical, synthetic construct; conditions: ferrous protein, anaerobic, pH 8.6, 100 mM KCl, 20 mM CHES, 5 °C, ethanol present; no acceptor; single-turnover metallocarbenoid formation; covalent heme adduct; read-out: K1 (pseudo-Michaelis constant)
T1 construct: de novo 4-helix bundle with covalently attached heme C

Rma-TDE = target: T2, Rma-TDE (Rhodothermus marinus, UniProt B3FQS5, V103T/M128D/M131E); experiment: as above; format: biochemical; conditions: read-out: K1 (pseudo-Michaelis constant); ferrous protein, anaerobic, pH 8.6, 100 mM KCl, 20 mM CHES, 5 °C, ethanol present; no acceptor; single-turnover metallocarbenoid formation; covalent heme adduct
T2 construct: gene cytC; engineered triple variant TDE of c-type cytochrome; synthetic gene, periplasmic expression from pSHT in E. coli T7 Express
T2 sequence (B3FQS5 entry or part of it V103T/M128D/M131E): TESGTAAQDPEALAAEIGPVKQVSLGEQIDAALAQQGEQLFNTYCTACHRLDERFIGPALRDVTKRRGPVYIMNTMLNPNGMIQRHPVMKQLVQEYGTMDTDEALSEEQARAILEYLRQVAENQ

CCOC(=O)C=[N+]=[N-] [EDA]
Km (C45): 74 µM
Km (Rma-TDE): 490 µM
